Experimental data published in EP2556062B1, “AMIDE DERIVATIVES OF AVENALUMIC ACID, PROCESS FOR PREPARING SAME AND COSMETIC COMPOSITIONS CONTAINING SAME” (Produits Chimiques Auxiliaires et de Synthese, priority 2010, dated 2011).

Assays:
[1] = DPPH radical scavenging test (free-radical trapping); assay type: biochemical; conditions: DPPH 0,5mM, 37°C, 30 minutes, absorbance at 517 nm; for % inhibition (C=25µM): compound 25µM; for % inhibition (C=80µM): compound 80µM; for % inhibition (C=): compound
Experimental: Cette étude mesure l'activité antiradicalaire d'un composé par capture du radical DPPH. Ce test est largement utilisé pour étudier la capacité d'un composé à donner un hydrogène.
L'activité se traduit par une décoloration du DPPH (violet). L'absorbance (densité optique DO) a été mesurée à 517 nm au bout de trente minutes sur un spectrophotomètre UV-visible thermostaté à 37°C. Le résultat est exprimé en pourcentage d'inhibition déterminé par la formule : [formula]
Cette activité a été comparée à celle des produits de référence vitamine E, acide férulique et vinylogue de l'acide férulique [dérivé (17)].

[2] = Auto-oxidation by the ferric thiocyanate (FTC) method: AAPH-induced lipid peroxidation of linoleic acid; assay type: biochemical; conditions: 25 micromoles; absorbance at 500nm versus time over five hours; activity not superior to that of acide férulique
Text: Cette méthode met en évidence la capacité de capter le radical peroxyle par le dérivé à tester. La méthode est basée sur une peroxydation lipidique de l'acide linoléique, émulsionné par le Tween 20®.
Cette peroxydation est réalisée par action d'un initiateur de radicaux libres, le dihydrochlorhydrate de 2,2'-azobis(2-amidino)propane (AAPH). Le radical peroxyle formé réagit avec le dérivé à tester et conduit à la formation d'un hydroperoxyde et d'un radical alkoxyle ArO˙. Ce dernier réagit avec le radical peroxyle et permet la formation de produits non radicalaires.
Par ailleurs, les radicaux peroxyle continuent d'oxyder le substrat (l'acide linoléique) pour former également un hydroperoxyde. Cet hydroperoxyde oxyde le fer ferreux présent in situ pour conduire à la formation de fer ferrique Fe^3+ qui se complexe à l'anion thiocyanate.
Le complexe rouge de thiocyanate ferrique formé absorbe à 500nm.
Le degré d'oxydation est quantifié par l'absorbance mesurée. L'activité antioxydante du dérivé à tester est donc la capacité à retarder la peroxydation lipidique. Plus la durée pour atteindre le maximum d'absorbance est longue, plus l'antioxydant est puissant.
Cette étude est réalisée sur une période de cinq heures avec un intervalle de temps d'une heure. Le résultat est exprimé par l'absorbance en fonction du temps. La concentration des molécules dans le milieu est de 25 micromoles.

Cc1c(C)c2c(c(C)c1O)CC[C@@](C)(CCC[C@H](C)CCC[C@H](C)CCCC(C)C)O2 [Vit.E, vitamine E, reference compound]
% inhibition (C=25µM) [1]: 41%
% inhibition (C=80µM) [1]: 92%
% inhibition (C=) [1]: 86%

COc1cc(/C=C/C=C/C(=O)O)ccc1O [compound 17, Acide (2E,4E)-5-[4-hydroxy-3-méthoxyphényl]penta-2,4-diénoique, reference compound]
% inhibition (C=25µM) [1]: 62%
% inhibition (C=80µM) [1]: 81%
% inhibition (C=) [1]: 65%

COc1cc(/C=C/C(=O)Nc2c(C)csc2C(=O)O)ccc1O [compound 4, Acide 3-{[(2E)-3-(4-hydroxy-3-méthoxyphényl)prop-2-ènoyl]amino}-4-méthylthiophène-2-carboxylique]
% inhibition (C=25µM) [1]: 41%
% inhibition (C=80µM) [1]: 50%
% inhibition (C=) [1]: 31%
activité antioxydante [2]: ont une activité antioxydante

COC(=O)c1scc(C)c1NC(=O)/C=C/c1ccc(O)c(OC)c1 [compound 3, 3-{[(2E)-3-(4-hydroxy-3-méthoxyphényl)prop-2-ènoyl]amino}-4-méthylthiophène-2-carboxylatede méthyle]
% inhibition (C=25µM) [1]: 45%
% inhibition (C=80µM) [1]: 72%
% inhibition (C=) [1]: 48%
activité antioxydante [2]: ont une activité antioxydante

COc1cc(/C=C/C(=O)O)ccc1O [Acide férulique, reference compound]
% inhibition (C=25µM) [1]: 50%
% inhibition (C=80µM) [1]: 78%
% inhibition (C=) [1]: 61%

COC(=O)c1scc(C)c1NC(=O)/C=C/C=C/c1ccc(O)c(OC)c1 [compound 21, 3-{[(2E,4E)-5-(4-hydroxy-3-méthoxyphényl)penta-2,4-diènoyl]amino}-4-méthylthiophène-2-carboxylatede méthyle]
% inhibition (C=25µM) [1]: 68%
% inhibition (C=80µM) [1]: 93%
% inhibition (C=) [1]: 74%
activité antioxydante [2]: ont une activité antioxydante

COc1cc(/C=C/C=C/C(=O)Nc2c(C)csc2C(=O)O)ccc1O [compound 22, Acide 3-{[(2E,4E)-5-(4-hydroxy-3-méthoxyphényl)penta-2,4-diènoyl]amino}-4-méthylthiophène-2-carboxylique]
% inhibition (C=25µM) [1]: 50%
% inhibition (C=80µM) [1]: 73%
% inhibition (C=) [1]: 54%
activité antioxydante [2]: ont une activité antioxydante
